From patent US10287297B2, “Epoxyazulene derivatives useful for treating cancer and diabetes” (The United States of America, as represented by the …, priority 2015, dated 2019)

Key:
Type in all cases: cell-based
UO-31 = experiment: NCI 60 cell assay, renal UO-31; conditions: Homo sapiens, 48 h; UO-31 (renal); drug exposure two days, SRB endpoint; read-out: GI-50 value
Method: (§1) Samples were tested in the standard National Cancer Institute 60-cell line protocol. First, they were tested against all 60 cell lines in a single final concentration of 10 micromolar. Then, they were separately tested in five 10-fold dilutions. The drug exposure was two days, with an SRB endpoint.

SNB-19 = experiment: NCI 60 cell assay, CNS SNB-19; conditions: Homo sapiens, 48 h; SNB-19 (CNS); drug exposure two days, SRB endpoint; read-out: GI-50 value
Method: as §1

SNB-75 = experiment: NCI 60 cell assay, CNS SNB-75; conditions: Homo sapiens, 48 h; SNB-75 (CNS); drug exposure two days, SRB endpoint; read-out: GI-50 value
Method: as §1

SW-620 = experiment: NCI 60 cell assay, colon SW-620; conditions: Homo sapiens, 48 h; SW-620 (colon); drug exposure two days, SRB endpoint; read-out: GI-50 value
Method: as §1

M14 = experiment: NCI 60 cell assay, melanoma M14; conditions: Homo sapiens, 48 h, drug exposure two days, SRB endpoint, read-out: GI-50 value
Method: as §1

TK-10 = experiment: NCI 60 cell assay, renal TK-10; conditions: Homo sapiens, 48 h; TK-10 (renal); drug exposure two days, SRB endpoint; read-out: GI-50 value
Method: as §1

COLO 205 = experiment: NCI 60 cell assay, colon COLO 205; conditions: Homo sapiens, 48 h; COLO 205 (colon); drug exposure two days, SRB endpoint; read-out: GI-50 value
Method: as §1

SK-MEL-2 = experiment: NCI 60 cell assay, melanoma SK-MEL-2; conditions: Homo sapiens, 48 h; SK-MEL-2 (melanoma); drug exposure two days, SRB endpoint; read-out: GI-50 value
Method: as §1

HCC-2998 = experiment: NCI 60 cell assay, colon HCC-2998; conditions: Homo sapiens, 48 h; HCC-2998 (colon); drug exposure two days, SRB endpoint; read-out: GI-50 value
Method: as §1

UACC-257 = experiment: NCI 60 cell assay, melanoma UACC-257; conditions: Homo sapiens, 48 h; UACC-257 (melanoma); drug exposure two days, SRB endpoint; read-out: GI-50 value
Method: as §1

HOP-62 = experiment: NCI 60 cell assay, NSCLC HOP-62; conditions: Homo sapiens, 48 h; HOP-62 (NSCLC); drug exposure two days, SRB endpoint; read-out: GI-50 value
Method: as §1

A498 = experiment: NCI 60 cell assay, renal A498; conditions: Homo sapiens, 48 h, drug exposure two days, SRB endpoint, read-out: GI-50 value
Method: as §1

MCF7 = experiment: NCI 60 cell assay, breast MCF7; conditions: Homo sapiens, 48 h, drug exposure two days, SRB endpoint, read-out: GI-50 value
Method: as §1

SN12C = experiment: NCI 60 cell assay, renal SN12C; conditions: Homo sapiens, 48 h, drug exposure two days, SRB endpoint, read-out: GI-50 value
Method: as §1

RXF 393 = experiment: NCI 60 cell assay, renal RXF 393; conditions: Homo sapiens, 48 h; RXF 393 (renal); drug exposure two days, SRB endpoint; read-out: GI-50 value
Method: as §1

OVCAR-8 = experiment: NCI 60 cell assay, ovarian OVCAR-8; conditions: Homo sapiens, 48 h; OVCAR-8 (ovarian); drug exposure two days, SRB endpoint; read-out: GI-50 value
Method: as §1

NCI/ADR-RES = experiment: NCI 60 cell assay, ovarian NCI/ADR-RES; conditions: Homo sapiens, 48 h, drug exposure two days, SRB endpoint, read-out: GI-50 value
Method: as §1

PC-3 = experiment: NCI 60 cell assay, prostate PC-3; conditions: Homo sapiens, 48 h; PC-3 (prostate); drug exposure two days, SRB endpoint; read-out: GI-50 value
Method: as §1

MALME-3M = experiment: NCI 60 cell assay, melanoma MALME-3M; conditions: Homo sapiens, 48 h; MALME-3M (melanoma); drug exposure two days, SRB endpoint; read-out: GI-50 value
Method: as §1

SF-268 = experiment: NCI 60 cell assay, CNS SF-268; conditions: Homo sapiens, 48 h; SF-268 (CNS); drug exposure two days, SRB endpoint; read-out: GI-50 value
Method: as §1

OVCAR-4 = experiment: NCI 60 cell assay, ovarian OVCAR-4; conditions: Homo sapiens, 48 h; OVCAR-4 (ovarian); drug exposure two days, SRB endpoint; read-out: GI-50 value
Method: as §1

SK-OV-3 = experiment: NCI 60 cell assay, ovarian SK-OV-3; conditions: Homo sapiens, 48 h; SK-OV-3 (ovarian); drug exposure two days, SRB endpoint; read-out: GI-50 value
Method: as §1

K-562 = experiment: NCI 60 cell assay, leukemia K-562; conditions: Homo sapiens, K562, 48 h; K-562 (leukemia); drug exposure two days, SRB endpoint; read-out: GI-50 value
Method: as §1

KM12 = experiment: NCI 60 cell assay, colon KM12; conditions: Homo sapiens, 48 h, drug exposure two days, SRB endpoint, read-out: GI-50 value
Method: as §1

NCI-H23 = experiment: NCI 60 cell assay, NSCLC NCI-H23; conditions: Homo sapiens, 48 h, drug exposure two days, SRB endpoint, read-out: GI-50 value
Method: as §1

SK-MEL-28 = experiment: NCI 60 cell assay, melanoma SK-MEL-28; conditions: Homo sapiens, 48 h; SK-MEL-28 (melanoma); drug exposure two days, SRB endpoint; read-out: GI-50 value
Method: as §1

SF-295 = experiment: NCI 60 cell assay, CNS SF-295; conditions: Homo sapiens, 48 h; SF-295 (CNS); drug exposure two days, SRB endpoint; read-out: GI-50 value
Method: as §1

Structure (SMILES) | GI50 (UO-31) [µM] | GI50 (SNB-19) [µM] | GI50 (SNB-75) [µM] | GI50 (SW-620) [µM] | GI50 (M14) [µM] | GI50 (TK-10) [µM] | GI50 (COLO 205) [µM] | GI50 (SK-MEL-2) [µM] | GI50 (HCC-2998) [µM] | GI50 (UACC-257) [µM] | GI50 (HOP-62) [µM] | GI50 (A498) [µM] | GI50 (MCF7) [µM] | GI50 (SN12C) [µM] | GI50 (RXF 393) [µM] | GI50 (OVCAR-8) [µM] | GI50 (NCI/ADR-RES) [µM] | GI50 (PC-3) [µM] | GI50 (MALME-3M) [µM] | GI50 (SF-268) [µM] | also measured
CC1=C2[C@@H](CC1)[C@]1(C)O[C@@](C(C)C)(C[C@H]1OC(=O)CO)[C@H]2OC(=O)C1CC1c1ccccc1 (stereo partly drawn) [Compound (Ij), (3aR,4S,5R,7R,8S)-5-(2-hydroxyacetoxy)-7-isopropyl-1,4-dimethyl-2,3,3a,4,5,6,7,8-octahydro-4,7-epoxyazulen-8-yl-2-phenylcyclopropane-1-carboxylate] | 11 | 17 | 15 | 17 | 13 | 17 | 17 | 16 | 14 | 16 | 17 | 0.27 | 8.9 | 7.4 | 0.069 | 13 | 12 | 9 | 17 | 14 | GI50 (OVCAR-4): 14 µM; GI50 (SK-OV-3): 17 µM; GI50 (K-562): 15 µM; GI50 (KM12): 13 µM; GI50 (NCI-H23): 15 µM; GI50 (SK-MEL-28): 17 µM; GI50 (SF-295): 13 µM
CC1=C2[C@@H](CC1)[C@]1(C)O[C@@](C3CC3)(C[C@H]1OC(=O)CO)[C@H]2OC(=O)C=Cc1ccccc1 [Compound (Is), (3aR,4S,5R,7R,8S)-7-cyclopropyl-5-(2-hydroxyacetoxy)-1,4-dimethyl-2,3,3a,4,5,6,7,8-octahydro-4,7-epoxyazulen-8-yl cinnamate] | 0.33 | 19 | 13 | 20 | 17 | 19 | 19 | 19 | 17 | 16 | 16 | 0.11 | 13 | 0.052 | 0.014 | 0.054 | 0.071 | 15 | 16 | 1.6 | GI50 (OVCAR-4): 15 µM; GI50 (SK-OV-3): 16 µM; GI50 (K-562): 20 µM; GI50 (KM12): 17 µM; GI50 (NCI-H23): 17 µM; GI50 (SK-MEL-28): 18 µM; GI50 (SF-295): 17 µM
CC1=C2[C@@H](CC1)[C@]1(C)O[C@@](C(C)C)(C[C@H]1OC(=O)[C@H](C)O)[C@H]2OC(=O)C=Cc1ccccc1 [(Il), (3aR,4S,5R,7R,8S)-5-(((S)-2-hydroxypropanoyl)oxy)-7-isopropyl-1,4-dimethyl-2,3,3a,4,5,6,7,8-octahydro-4,7-epoxyazulen-8-yl cinnamate] | 0.71 | 18 | 24 | 15 | 13 | 17 | 17 | 15 | 14 | 15 | 15 | 0.21 | 10 | 0.21 | 0.045 | 0.35 | 0.42 | 4 | 15 | 1.3 | GI50 (OVCAR-4): 12 µM; GI50 (SK-OV-3): 15 µM; GI50 (K-562): 15 µM; GI50 (KM12): 16 µM; GI50 (NCI-H23): 14 µM; GI50 (SK-MEL-28): 16 µM; GI50 (SF-295): 11 µM
CC1=C2[C@@H](CC1)[C@]1(C)O[C@@](C(C)C)(C[C@H]1OC(=O)CO)[C@H]2OC(=O)/C=C/c1ccccc1 [Compound (Ih)] | 0.04 | 39 | 2.9 | 40 | 43 | 100 | 44 | 44 | 100 | 40 | 36 | 0.034 | 32 | 20 | 0.13 | 0.09 | 0.13 | 26 | 43 | 2.6 | GI50 (OVCAR-4): 35 µM; GI50 (SK-OV-3): 44 µM; GI50 (K-562): 38 µM; GI50 (KM12): 40 µM; GI50 (NCI-H23): 42 µM; GI50 (SK-MEL-28): 42 µM; GI50 (SF-295): 40 µM
